# From patent publication US20100287625A1, “VEGF VARIANTS” (UNIVERSITE DE LIEGE, priority 2006, published 2010)
# Legend:
# VEGF111 mRNA [1] = assay: VEGF111 mRNA in blood cells treated ex vivo, RT-PCR; format: cell-based, human; conditions: blood cells of a healthy donor, 1 μM, 6 and 24 hours
# Protocol: FIG. 8: VEGF111 is expressed in blood cells treated with camptothecin (1 μM) ex vivo. Double arrowhead: internal standard. Vertical arrow indicates amplification products of VEGF111.
# Blood was collected from a healthy donor, and cells were collected by centrifugation. Red blood cells were lyzed and the remaining cells were treated or not with camptothecin (1 μM) for 6 and 24 hours. Untreated cells were also investigated directly after collection. Total VEGF mRNA was measured by RT-PCR as described.
# VEGF111 mRNA [2] = assay: Induction of VEGF111 mRNA by genotoxic agents, RT-PCR; format: cell-based, human
# Protocol: The indicated cells were treated with UV-B or camptothecin (30 mJ or 1 μM, respectively, except otherwise indicated) for 24 hours (except otherwise indicated) and VEGF and VEGF111 mRNA were measured by RT-PCR. (A) Polyacrylamide gel electrophoresis of RT-PCR products of VEGF (upper panel), VEGF111 (middle panel) and 28S rRNA (lower panel). Arrows in upper panel show the amplification product of VEGF111. The drawings on the right represent the exons (not to scale) in the corresponding VEGF isoforms. C: control cells; Cp: camptothecin treatment; M: 50 bp molecular weight marqueurs; R: cells rinsed with red phenol-free medium; UV: UV-B irradiation; -: non template control; arrowheads: RT-PCR products of synthetic RNA added to the test tubes to monitor reaction efficiency. (B to E) Dose-response analysis (B and D) and kinetic of induction (C and E) of VEGF111 mRNA level in MCF7 cells irradiated by UV-B (B and C) or treated with camptothecin (D and E). The expression of VEGF111 is expressed as the percentage of the signal corresponding to its mRNA taking the overall various VEGF isoforms mRNA, as measured in upper panel of (A) as 100%.
# The RT-PCR amplifications were performed in an automated system (GeneAmp PCR System 2400 or 9600, Perkin Elmer, Norwalk, Conn.) using the GeneAmp Thermostable rTth Reverse Transcriptase RNA PCR kit (Perkin Elmer), 10 ng of total RNA and the different pairs of primers (5 pmole each, see Table 1). For amplification of VEGF isoforms mRNA and 28S rRNA, a known copy number of an internal standard RNA were included in each sample to monitor the efficiency of the reaction. The RT step (70° C., 15 min.) was followed by a 2 min. incubation at 95° C. for denaturation of RNA/DNA heteroduplexes, PCR amplification and final elongation for 2 min. at 72° C. The conditions for PCR amplification were 94° C. for 15 sec., 66° C. for 20 sec., 72° C. for 10 sec. for 28S rRNA and CD31 mRNA, or 94° C. for 20 sec, 66° C. for 30 sec. and 72° C. for one min for VEGF. RT-PCR products were resolved on 10% polyacrylamide gel and analysed using a Fluor-S MultiImager (BioRad) after staining with gelstar dye (FMC BioProducts, Rockland, Me.). Specific detection of VEGF111 isoform mRNA was performed as follow. mRNA was reverse transcribed using oligodT (Eurogentec, Seraing, Belgium) and Superscript II (Invitrogen) as described by the manufacturer. Reverse transcription (42° C., 50 min.) was followed by denaturation of the enzyme at 70° C. for 15 min. VEGF111 cDNA was amplified by PCR using 40 ng cDNA, the oligos P5 and P6 (Table 1) and Taq polymerase (Takara, Shiga, Japan). The conditions for PCR amplification were 94° C. for 15 sec., 70° C. for 20 sec.,72° C. for 10 sec.
smiles,measurement,setting,value
CC[C@@]1(O)C(=O)OCc2c1cc1n(c2=O)Cc2cc3ccccc3nc2-1 [Camptothecin],VEGF111 mRNA in blood cells,VEGF111 mRNA [1],expressed
same,expression of VEGF111,"VEGF111 mRNA [2]; 1 μM, HaCat cells and MCF7 cells, by 24 hours, level similar to or higher than after UV-irradiation",induced
same,time after which VEGF111 induction reached a plateau,"VEGF111 mRNA [2]; MCF7 cells, camptothecin",24 h
same,time after which VEGF111 induction was already detected,"VEGF111 mRNA [2]; MCF7 cells, camptothecin",6 h
same,"VEGF111 induction, dose-response","VEGF111 mRNA [2]; MCF7 cells, with the concentration of camptothecin",progressively increased
